Activity calls are given as the source filed them. The rule behind the calls is not given here.
Assays:
[1] = tested on: Mycobacterium tuberculosis; experiment: Antimycobacterial activity against Mycobacterium tuberculosis H37Rv isolated from patient with tuberculosis assessed as bacterial load per day at 15 to 30 mg/kg, po after 2.5 to 3 weeks; type: functional
[2] = tested on: Mycobacterium tuberculosis; experiment: Antimycobacterial activity against Mycobacterium tuberculosis H37Rv isolated from patient with tuberculosis at >= 15 mg/kg, po after 14 to 21 days; type: functional, organism-based; parameters: dose 15 mg/kg
[3] = Absorption rate constant in Mycobacterium tuberculosis H37Rv; type: ADME
[4] = Ratio of AUC (0 to 24 hrs) to MIC associated with 0.5 log10CFU/ml bacterial count in patient infected with Mycobacterium tuberculosis H37Rv; type: functional
[5] = tested on: Mycobacterium tuberculosis; experiment: Antimycobacterial activity against Mycobacterium tuberculosis H37Rv isolated from patient with tuberculosis assessed as bacterial load per day at >= 15 mg/kg, po after 4 days; type: functional
[6] = Clearance in Mycobacterium tuberculosis H37Rv; type: ADME
[7] = Elimination rate constant in Mycobacterium tuberculosis H37Rv; type: ADME
[8] = Ratio of AUC (0 to 24 hrs) to MIC associated with 2 log10CFU/ml bacterial count in patient infected with Mycobacterium tuberculosis H37Rv; type: functional
[9] = Ratio of AUC (0 to 24 hrs) to MIC associated with 1 log10CFU/ml bacterial count in patient infected with Mycobacterium tuberculosis H37Rv; type: functional
[10] = Volume of distribution in Mycobacterium tuberculosis H37Rv; type: ADME, organism-based; details: in vivo

NC(=O)c1cnccn1 [PYRAZINAMIDE]
log10CFU/ml/day [1]: 0.09 | Activity [2]: inactive | Ka [3]: 3.45 h⁻¹ | log10CFU/ml [4]: 9.43 | log10CFU/ml/day [5]: 0.05 | clearance [6]: 1.67 mL/min/kg | k el [7]: 1.67e-05 s⁻¹ | log10CFU/ml [8]: 66.67 | log10CFU/ml [9]: 20.26 | Vd [10]: 1.68 L/kg
